Drawing on patent US20250163062A1, “WNT PATHWAY INHIBITOR COMPOUNDS” (ADLAI NORTYE BIOPHARMA CO., LTD., priority 2022, published 2025), this text covers IC50 for twelve molecules.

Holding throughout (assay type): cell-based
For assay [1], the system named is H929. The assay can be described thus: Proliferation inhibition test, Wnt mutant cell line H929. The settings on record: H929, 96 h culture with compound, read-out: Antiproliferation IC50 H929. From the text:
(§1) The cell lines used in the experiment are Colo205, H929, HepG2, and DU4475, which have sustained activation of the Wnt pathway and whose proliferation is Wnt pathway-dependent. On the other hand, RKO cell line, in which normally the Wnt pathway is not activated and whose proliferation is not Wnt pathway-dependent, was used as a control cell line. This was done to determine whether the inhibitory effect of the compound of the present disclosure on Wnt-dependent proliferation is due to other nonspecific toxicity.
(§2) Colo205, H929, DU4475, HepG2 and RKO cell lines cultured in their respective culture media were treated in the logarithmic growth phase, and the cells were collected and prepared into a uniform cell suspension of known concentration, and then added to a 96-well cell culture plate so that each well contained 1000-4000 cells. Place in a 5% CO2 cell culture incubator and culture at 37° C. for 20-24 h. On the second day, add the completely dissolved, 3-fold gradient dilution compound to each cell culture well to make the final maximum concentration in the cell culture well 10 uM, and continue to culture for 96 h. This test uses Promega's cell activity detection test for detection. The more the cells proliferate, the stronger the final signal intensity. The detection instrument is SpectraMax, full wavelength mode. The wells with only DMSO added were used as positive control wells, and the wells without cells inoculated were used as negative control wells.

In assay [2] the test system is DU4475. As to the kind of experiment: Proliferation inhibition test, Wnt mutant cell line DU4475. To be noted: DU4475, 96 h culture with compound, read-out: Antiproliferation IC50 DU4475.
Description: as §1, §2

For assay [3], the system named is Colo205-LUC-TCF/LEF reporter gene. As to the kind of experiment: Colo205-LUC-TCF/LEF M1 reporter cell line luciferase inhibition. The settings on record: 4 h, 4 hours incubation, firefly luciferase signal. As to the method: Colo205 cell line (Cell Bank of Chinese Academy of Sciences, Cat #TCHul02) was purchased from the Cell Bank of Chinese Academy of Sciences. After expansion and subculture, during the exponential growth phase, luciferase reporter plasmid (Promega) driven by TCF/LEF transcription factor was transfected by lipo3000 liposome transfection. The plasmid carries a resistance gene for resistance screening. Transfection was carried out in 10 cm culture dishes using conventional complete medium without resistance. After 2 days, the medium with resistance was replaced, and the culture was continued. After that, the medium with resistance was replaced every 2 days, and the suspended cells were discarded. The original medium was centrifuged to remove cells and debris and retained as an adaptive medium. When the cells covered the culture dish, the cells were digested, counted, and passaged in a 96-well plate, so that the average number of cells contained in each well was 1.5/well, and the adaptive medium was used for passage. The rest of the cells were frozen. After passage, culture for 4 hours to allow the cells to adhere to the wall, and then observe the number of cells in each well under a microscope. Wells with only 1 cell per well were labeled as monoclonal wells. Afterwards, normal culture was performed, and the culture medium was replaced every 2 days, and observed. There are wells where the monoclonal cells continue to grow in the early stage, and they are labeled twice, and can be replaced with normal medium with resistance. When a monoclonal well was overgrown with a 96-well plate, it is digested and passaged to a 24-well culture plate. After the 24-well plate is overgrown, it is passaged to a 96-well plate and a 6-well plate. The cells in a 96-well plate are at least 6 wells, of which 3 wells were added with known Wnt inhibitors, and the other 3 wells were not treated. After 24 hours, the cells in the 96-well plate were added with a fluorescence detection reagent to detect the fluorescence intensity. Cell lines with fluorescent expression when not treated and decreased fluorescent light after inhibition were selected and further cultured. The Colo205-LUC-TCF/LEF-M1 cell line is one of the cell lines screened above. Its growth curve, cell shape, and cell growth state are similar to those of the original Colo205 cells, and the ratio of the fluorescent signals of the inhibitor-treated and untreated cells is the largest among all cell lines, and the ratio can reach 4-5 times when inhibited at 4 hours, which was completely suitable for the screening of Wnt inhibitors in the later stage.
The Colo205-LUC-TCF/LEF M1 cell line is a reporter tool cell stably transfected with the pGL4.49-LUC2-TCF/LEF vector. The β-catenin Wnt pathway is continuously activated. After adding the inhibitor, the Wnt pathway is inhibited. The expression of firefly luciferase regulated by the TCF/LEF cis-element decreased, and after adding the detection substrate, the detected light signal decreased accordingly, so as to detect the inhibitory effect of the compound.
To a 96-well cell culture plate, add 100 uL of the compound with a maximum concentration of 20 uM to each well, and make a 3-fold serial dilution of the compound concentration. Then 10,000 colo205 cells stably transfected with the reporter gene and 100 uL medium were inoculated into each well, and corresponding positive and negative control wells were made at the same time. Put the cells in a 5% CO2 incubator and incubate at 37° C. for 4 hours. After 4 hours, remove the culture medium, add 100 μL of reagent (Promega) containing the corresponding firefly luciferase substrate to each well, and measure the activity of luciferase reporter gene. Luminescence intensity was read with SpectraMax in full wavelength mode. […]

Assay [4] concerns Colo205. The assay can be described thus: Proliferation inhibition test, Wnt mutant cell line Colo205. The settings on record: Colo205, 96 h culture with compound, read-out: Antiproliferation IC50 Colo205.
Description: as §1, §2

In assay [5] the test system is HepG2. As to the kind of experiment: Proliferation inhibition test, Wnt mutant cell line HepG2. The settings on record: HepG2, 96 h culture with compound, read-out: Antiproliferation IC50 HepG2.
Description: as §1, §2

Assay [6] has as its system RKO. The assay can be described thus: Proliferation inhibition test, non-Wnt mutant control cell line RKO. The settings on record: RKO (Wnt pathway not activated, control), 96 h culture, maximum concentration 10 uM, read-out: Antiproliferation IC50 RKO.
Description: as §1, §2

Each structure is given as a SMILES string. Like-named read-outs stand apart in the source and are kept apart here.

`CN1c2nc(NCc3ccc(Oc4ccc(C(F)(F)F)nc4CC#N)nc3)nc3c2N(CCC3)C(=O)[C@@H]1CO` [Compound 17, (S)-2-(3-((5-(((5-(Hydroxymethyl)-4-methyl-6-carbonyl-5,6,9,10-tetrahydro-4H,8H-pyrido[3,2,1-de]pteridin-2-yl)amino)methyl)pyridin-2-yl)oxy)-6-(trifluoromethyl)pyridin-2-yl)acetonitrile]: the IC50 in assay [1] (Homo sapiens, NCI-H929, 96 h) is 599 nM; in assay [2] (Homo sapiens, DU-4475, 96 h), 42.9 nM; in assay [3], 264 nM; in assay [4] (Homo sapiens, COLO 205, 96 h) it was 179 nM; in assay [5] (Homo sapiens, HepG2, 96 h), 879 nM; in assay [6] (Homo sapiens) it was > 10000 nM.
With `Cc1nc(C(F)(F)F)ncc1Oc1ncc(CNc2nc3c4c(n2)N(C)[C@@](C)(CO)C(=O)N4CCC3)cc1F` [Compound 28], the IC50 in assay [1] (Homo sapiens, NCI-H929, 96 h) is 126 nM; in assay [2] (Homo sapiens, DU-4475, 96 h), 16.8 nM; in assay [3], 27.4 nM; in assay [4] (Homo sapiens, COLO 205, 96 h) it was 25.7 nM; in assay [5] (Homo sapiens, HepG2, 96 h), 61.3 nM; in assay [6] (Homo sapiens) it was > 10000 nM.
For `[2H]C([2H])([2H])N1c2nc(NCc3ccc(Oc4cnc(C(F)(F)F)nc4C4CC4)nc3)nc3c2N(CCC3)C(=O)[C@@H]1CO` [Compound 9, (S)-2-(((6-((4-cyclopropyl-2-(trifluoromethyl)pyrimidin-5-yl)oxy)pyridin-3-yl)methyl)amino)-5-(hydroxymethyl)-4-(methyl-d3)-4,5,9,10-tetrahydro-6H,8H-pyrido[3,2,1-de]pteridin-6-one], the IC50 in assay [1] (Homo sapiens, NCI-H929, 96 h) was 36.4 nM; in assay [2] (Homo sapiens, DU-4475, 96 h) it was 0.46 nM; in assay [3], 13.8 nM; in assay [4] (Homo sapiens, COLO 205, 96 h) it was 8.43 nM; in assay [5] (Homo sapiens, HepG2, 96 h), 11.3 nM; in assay [6] (Homo sapiens), > 10000 nM.
Regarding `Cc1nc(C(F)(F)F)ncc1Oc1ccc(CNc2nc3c4c(n2)N(C)[C@@](C)(CO)C(=O)N4CCC3)cn1` [Compound 19], the IC50 was 58.3 nM in assay [1] (Homo sapiens, NCI-H929, 96 h); 14.8 nM in assay [2] (Homo sapiens, DU-4475, 96 h); 34.8 nM in assay [3]; 26.6 nM in assay [4] (Homo sapiens, COLO 205, 96 h); 31.1 nM in assay [5] (Homo sapiens, HepG2, 96 h); > 10000 nM in assay [6] (Homo sapiens).
Take `Cc1nc(C(F)(F)F)ncc1Oc1ccc(CNc2nc3c4c(n2)N(C)[C@@](C)([C@H](C)O)C(=O)N4CCC3)cn1` [Compound 22]: the IC50 in assay [1] is 309 nM; in assay [2], 38.6 nM; in assay [3], 90 nM; in assay [4], 64.3 nM; in assay [5], 224 nM; in assay [6], > 10000 nM.
With `[2H]C([2H])([2H])N1c2nc(NCc3ccc(Oc4cnc(C(F)(F)F)nc4CC)nc3)nc3c2N(CCC3)C(=O)[C@]1(C)CO` [Compound 7, (S)-2-(((6-((4-ethyl-2-(trifluoromethyl)pyrimidin-5-yl)oxy)pyridin-3-yl)methyl)amino)-5-(hydroxymethyl)-5-methyl-4-(methyl-d3)-4,5,9,10-tetrahydro-6H,8H-pyrido[3,2,1-de]pteridin-6-one], the IC50 is 52.2 nM in assay [1] (Homo sapiens, NCI-H929, 96 h); 3.59 nM in assay [2] (Homo sapiens, DU-4475, 96 h); 10.7 nM in assay [3]; 5.54 nM in assay [4] (Homo sapiens, COLO 205, 96 h); 15.6 nM in assay [5] (Homo sapiens, HepG2, 96 h); > 10000 nM in assay [6] (Homo sapiens).
Take `Cc1nc(C(F)(F)F)ncc1Oc1ccc(CNc2nc3c4c(n2)N(C)[C@@H]([C@@H](C)O)C(=O)N4CCC3)cn1` [Compound 23]: the IC50 in assay [1] (Homo sapiens, NCI-H929, 96 h) was 192 nM; in assay [2] (Homo sapiens, DU-4475, 96 h), 16 nM; in assay [3], 64.7 nM; in assay [4] (Homo sapiens, COLO 205, 96 h) it was 53.7 nM; in assay [5] (Homo sapiens, HepG2, 96 h), 37.5 nM; in assay [6] (Homo sapiens), > 10000 nM.
Take `CN1c2nc(NCc3ccc(Oc4ccc(C(F)(F)F)nc4N4CCCC4)nc3)nc3c2N(CCC3)C(=O)[C@]1(C)CO` [Compound 13, (S)-5-(Hydroxymethyl)-4,5-dimethyl-2-(((6-((2-(pyrrolidin-1-yl)-6-(trifluoromethyl)pyridin-3-yl)oxy)pyridin-3-yl)methyl)amino)-4,5,9,10-tetrahydro-6H,8H-pyrido[3,2,1-de]pteridin-6-one]: the IC50 is 54 nM in assay [1] (Homo sapiens, NCI-H929, 96 h); 1.58 nM in assay [2] (Homo sapiens, DU-4475, 96 h); 6.86 nM in assay [3]; 11.5 nM in assay [4] (Homo sapiens, COLO 205, 96 h); 19.1 nM in assay [5] (Homo sapiens, HepG2, 96 h); > 10000 nM in assay [6] (Homo sapiens).
Turning to `CN(C)c1nc(C(F)(F)F)ccc1Oc1ccc(CNc2nc3c4c(n2)N(C)[C@@](C)(CO)C(=O)N4CCC3)cn1` [Compound 15, (S)-2-(((6-((2-(dimethylamino)-6-(trifluoromethyl)pyridin-3-yl)oxy)pyridin-3-yl)methyl)amino)-5-(hydroxymethyl)-4,5-dimethyl-4,5,9,10-tetrahydro-6H,8H-pyrido[3,2,1-de]pteridin-6-one], the IC50 in assay [3] was < 0.1 nM; in assay [4] (Homo sapiens, COLO 205, 96 h), 1.35 nM; in assay [5] (Homo sapiens, HepG2, 96 h) it was 1.3 nM; in assay [6] (Homo sapiens), > 10000 nM.
Regarding `[2H]C([2H])([2H])N1c2nc(NCc3ccc(Oc4cnc(C(F)(F)F)nc4CC)nc3)nc3c2N(CCC3)C(=O)[C@@H]1CO` [Compound 8, (S)-2-(((6-((4-ethyl-2-(trifluoromethyl)pyrimidin-5-yl)oxy)pyridin-3-yl)methyl)amino)-5-(hydroxymethyl)-4-(methyl-d3)-4,5,9,10-tetrahydro-6H,8H-pyrido[3,2,1-de]pteridin-6-one], the IC50 was 86.9 nM in assay [1] (Homo sapiens, NCI-H929, 96 h); 9.6 nM in assay [2] (Homo sapiens, DU-4475, 96 h); 32 nM in assay [3]; 24.2 nM in assay [4] (Homo sapiens, COLO 205, 96 h); 35.1 nM in assay [5] (Homo sapiens, HepG2, 96 h); > 10000 nM in assay [6] (Homo sapiens).
`[2H]C([2H])([2H])N1c2nc(NCc3ccc(Oc4cnc(C(F)(F)F)nc4C)nc3)nc3c2N(CCC3)C(=O)[C@@H]1[C@@H](C)O` [Compound 24]: the IC50 in assay [1] (Homo sapiens, NCI-H929, 96 h) is 5.61 nM; in assay [2] (Homo sapiens, DU-4475, 96 h) it was 23.2 nM; in assay [3] it was 48 nM; in assay [4] (Homo sapiens, COLO 205, 96 h), 46.5 nM; in assay [5] (Homo sapiens, HepG2, 96 h) it was 37 nM; in assay [6] (Homo sapiens), > 10000 nM.
`CCc1nc(C(F)(F)F)ncc1Oc1ccc(CNc2nc3c4c(n2)N(C)[C@@](C)([C@H](C)O)C(=O)N4CCC3)cn1` [Compound 14, (S)-2-(((6-((4-ethyl-2-(trifluoromethyl)pyrimidin-5-yl)oxy)pyridin-3-yl)methyl)amino)-5-((S)-1-hydroxyethyl)-4,5-dimethyl-4,5,9,10-tetrahydro-6H,8H-pyrido[3,2,1-de]pteridin-6-one]: the IC50 in assay [3] was 35.2 nM; in assay [4] (Homo sapiens, COLO 205, 96 h), 70.3 nM; in assay [5] (Homo sapiens, HepG2, 96 h), 79 nM; in assay [6] (Homo sapiens) it was > 10000 nM.
